{"source": "patent US6900239B2", "about": "“Tumor chemopotentiation using isocoumarin derivatives” (ILWZ ILEX Products, Inc., priority 2000, dated 2005)", "molecules": {"B1": {"name": "endostatin: anti-angiogenic protein used for comparison (protein, UniProt P39060 1572-1754, looked up)", "Endostatin": "HSHRDFQPVLHLVALNSPLSGGMRGIRGADFQCFQQARAVGLAGTFRAFLSSRLQDLYSIVRRADRAAVPIVNLKDELLFPSWEALFSGSEGPLKPGARIFSFDGKDVLRHPTWPQKSVWHGSDPNGRRLTESYCETWRTEAPSATGQASSLLGGRLLGQSAASCHHAYIVLCIENSFMTASK", "modifications": "Endostatin", "notes": "anti-angiogenic protein used for comparison"}, "B2": {"name": "angiostatin: 38-kDa fragment of plasminogen that selectively inhibits proliferation of endothelial cells; anti-angiogenic protein (protein, UniProt P00747 79-466, looked up)", "Angiostatin": "NRKSSIIIRMRDVVLFEKKVYLSECKTGNGKNYRGTMSKTKNGITCQKWSSTSPHRPRFSPATHPSEGLEENYCRNPDNDPQGPWCYTTDPEKRYDYCDILECEEECMHCSGENYDGKISKTMSGLECQAWDSQSPHAHGYIPSKFPNKNLKKNYCRNPDRELRPWCFTTDPNKRWELCDIPRCTTPPPSSGPTYQCLKGTGENYRGNVAVTVSGHTCQHWSAQTPHTHNRTPENFPCKNLDENYCRNPDGKRAPWCHTTNSQVRWEYCKIPSCDSSPVSTEQLAPTAPPELTPVVQDCYHGDGQSYRGTSSTTTTGKKCQSWSSMTPHRHQKTPENYPNAGLTMNYCRNPDADKGPWCFTTDPSVRWEYCNLKKCSGTEASVVAPPP", "modifications": "Angiostatin", "notes": "anti-angiogenic protein"}}, "key": {"[1]": {"test_system": "MDAMB-435 human breast tumor xenografts", "experiment": "MDAMB-435 orthotopic model, NM-3 with paclitaxel, first study", "format": "in vivo, female NCRNU nude mice", "details": "for % Tumor Growth Inhibition: Taxol 10 mg/kg q7d i.p. alone", "from_the_text": "In order to determine the effect of the combination of NM-3 with the cytotoxic drug, paclitaxel on human breast tumor xenografts, female NCRNU nude mice were implanted with MDAMB-435 cells into the subaxillary mammary fat pad. […]"}, "[2]": {"test_system": "MDAMB-435 human breast tumor xenografts", "experiment": "MDAMB-435 orthotopic model, NM-3 with paclitaxel, second study (100 mm^3) and delivery routes", "format": "in vivo, female NCRNU nude mice", "details": "Taxol 12.5 mg/kg q7d alone", "description": "In order to determine the effect of the combination of NM-3 with the cytotoxic drug, paclitaxel on human breast tumor xenografts, female NCRNU nude mice were implanted with MDAMB-435 cells into the subaxillary mammary fat pad. NM-3 was administered via intraperitoneal (i.p.) injection daily at doses ranging from 10-100 mg/kg; paclitaxel was administered via i.p. injection every 7 days, starting on day 0, at 10 mg/kg.\nIn a second study, treatment was initiated when tumor volumes reached 100 mm^3. Paclitaxel was administered at the fixed dose of 12.5 mg/kg, q7d and NM-3 was dosed at 10 and 100 mg/kg, i.p. daily for 28 days.\nA comparison was also made between different delivery routes of NM-3 in the combination studies. NM-3 given i.p. daily, bid, and continuously using Alzet mini osmotic pumps in combination with paclitaxel was evaluated for effectiveness in reducing tumor growth."}, "cultured tumor cells": {"test_system": "cultured tumor cells", "details": "cited from earlier work"}, "[3]": {"details": "mice and dogs; cited from earlier work"}, "[4]": {"details": "in vivo; cited from earlier work"}, "[5]": {"test_system": "transplantable mouse solid tumors", "details": "oral administration; cited from earlier work"}, "colon 26 adenocarcinoma": {"test_system": "colon 26 adenocarcinoma", "experiment": "Combination with cyclophosphamide, survival", "format": "in vivo, BALB/c mice", "details": "Cyclophosphamide 300 mg/kg i.v. day 14 alone", "description": "To determine the effect on tumor growth of NM-3 treatment combined with simultaneous cyclophosphamide treatment, colon 26 adenocarcinoma cells (5×10^4 cells per mouse) were subcutaneously transplanted into BALB/c mice (female, 7 weeks old) in the inguinal area. NM-3 was continuously orally administered from day 1 to day 72 after the transplantation except on day 14 when cyclophosphamide was dosed."}, "IMC carcinoma": {"test_system": "IMC carcinoma", "experiment": "Combination with cyclophosphamide, tumor weight", "format": "in vivo, CDF1 mice", "details": "Cyclophosphamide 300 mg/kg i.v. day 14 alone", "description": "To determine the effect on IMC carcinoma growth of NM-3 treatment combined with simultaneous cyclophosphamide treatment, IMC carcinoma cells (1×10^6 cells per mouse) were subcutaneously transplanted into CDF1 mice (female, 10 weeks old) in the inguinal area. NM-3 which was dissolved using 5% DMSO+Tween80, was continuously orally administered from day 1 to day 41 after transplantation except on day 14, when cyclophosphamide (300 mg/kg) was injected intravenously."}, "[6]": {"test_system": "MDAMB-435 human breast tumor xenografts", "experiment": "MDAMB-435 orthotopic model, NM-3 with 5-Fluorouracil", "format": "in vivo, female NCRNU nude mice", "details": "5-FU 10 mpk q14d; 0,14 alone", "description": "In order to evaluate the antitumor activity of NM-3 in combination with 5-Fluorouracil (5-FU) vs. MDAMB-435 human breast tumor xenografts, female NCRNU nude mice were implanted with MDAMB-435 cells into the subaxillary mammary fat pad. When the tumors were between 50 and 80 mm^3, NM-3 was administered via intraperitoneal (i.p.) injection daily at 10 and 100 mg/kg; 5-FU was administered via i.p. injection on days 0 and 14, at 10 mg/kg. Mice were weighed twice weekly, and tumor measurements were taken by calipers twice weekly. Mice were euthenized at the end of the treatment period. Upon termination, the mice were weighed, sacrificed and their tumors were excised.\nInitial studies were conducted with 5-FU to determine the optimal dose of this agent when administered in combination with NM-3."}, "[7]": {"test_system": "Human umbilical vein endothelial cells (HUVEC)", "experiment": "HUVEC colony formation with a constant amount of gamma radiation", "format": "cell-based", "description": "Human umbilical vein endothelial cells (HUVEC) were exposed to a constant amount of gamma radiation in the presence or absence of various concentrations of NM-3 in the culture medium. The numbers of HUVEC colonies that formed following the different treatments were recorded and normalized to the number of colonies formed under control (no NM-3) conditions and the results are shown in FIG. 1. […] For comparison, HUVEC cells were treated with either angiostatin or endostatin, two additional anti-angiogenic proteins."}, "[8]": {"test_system": "Lewis Lung carcinoma (LLC) tumors", "experiment": "Radiation sensitivity of Lewis Lung carcinoma in vivo", "set-up": "species or system C57BL/6 female mice", "details": "combined with X-ray treatment", "description": "To determine whether NM-3 treatment increases the radiation sensitivity of tumors in vivo, Lewis Lung carcinoma (LLC) tumors were established in C57BL/6 female mice (Frederick Cancer Research Institute) prior to NM-3 and radiation treatment. LLC cells (1×10^6 cells) were injected in the right hind limb of the mice and tumors were allowed to grow a volume of 250-350 mm^3. Tumor volumes were determined by direct measurements with calipers calculated by the formula: V=length×width×depth/2. Mice were then divided into groups and treated with NM-3 (100 mg/kg total) or PBS for two days before beginning radiation therapy. Animals then received NM-3 (25 mg/kg/day, i.p.) or PBS approximately four hours prior to radiation treatment. Tumors were irradiated using a GE Maxitron X-ray generator operating at 150 kV, 30 mA, using a 1 mm aluminum filter at a dose rate of 188 cGy/minute. Mice were shielded with lead except for the tumor-bearing area in the hind limb. Treatments and tumor measurements continued for a period of 17 days (see FIG. 4). […] Whereas control tumors reached 8 initial tumor volumes (Vo) after 8 days, X-ray treated tumors required 16 days to grow to this size. […] For comparison, data are plotted with two additional anti-angiogenic drugs, antiostatin and endostatin (see FIGS. 3B and 3C)."}}}
{"molecule": "CC(=O)O[C@H]1C(=O)[C@@]2(C)[C@H]([C@H](OC(=O)c3ccccc3)[C@]3(O)C[C@H](OC(=O)[C@H](O)[C@@H](NC(=O)c4ccccc4)c4ccccc4)C(C)=C1C3(C)C)[C@]1(OC(C)=O)CO[C@@H]1C[C@@H]2O", "note": "[Taxol, paclitaxel]", "values": [{"measurement": "Final Tumor Wt. (mg) +/− SEM", "setting": "[1]; Taxol 10 mg/kg q7d alone", "result": "215.6 ± 19.73", "unit": "mg"}, {"measurement": "Mice with Complete Shrinkage", "setting": "[1]; Taxol 10 mg/kg q7d alone, n 9", "result": 0}, {"measurement": "% Tumor Growth Inhibition", "setting": "[1]; listed as Paclitaxel", "result": "no tumor growth inhibition"}, {"measurement": "% Tumor Growth Inhibition", "setting": "[1]; listed as paclitaxel", "result": "minimal effect"}, {"measurement": "Tumor growth inhibition", "setting": "[1]; paclitaxel 20 mg/kg, single agent", "result": "significant effect on tumor growth inhibition"}, {"measurement": "% Tumor Growth Inhibition", "setting": "[2]", "result": 26.52, "unit": "%"}, {"measurement": "Final Tumor Ratio (V/Vo) +/− SEM", "setting": "[2]", "result": "4.71 ± 0.76", "unit": "V/Vo"}, {"measurement": "Mice with Complete Shrinkage", "setting": "[2]; n 9", "result": 0}]}
{"molecule": "COc1cc(O)c2c(=O)oc(CO)cc2c1", "note": "[Cytogenin, 3-hydroxymethyl-6-methoxy-8-hydroxy-1H-2-benzopyran-1-one]", "values": [{"measurement": "Anti-proliferation inhibitory activity", "setting": "cultured tumor cells", "result": "very low anti-proliferation inhibitory activity"}, {"measurement": "Toxicity", "setting": "[3]", "result": "low toxicity"}, {"measurement": "Stability", "setting": "[4]", "result": "in vivo instability"}, {"measurement": "Antitumor activity", "setting": "[5]", "result": "demonstrated antitumor activities"}]}
{"molecule": "O=P1(N(CCCl)CCCl)NCCCO1", "note": "(stereo not shown) [Cyclophosphamide, reference compound]", "values": [{"measurement": "Mean Survival Days (days ± S.D.)", "setting": "colon 26 adenocarcinoma", "result": "47.9 ± 13.9", "unit": "days"}, {"measurement": "T/C (%)", "setting": "colon 26 adenocarcinoma", "result": 145.1, "unit": "%"}, {"measurement": "T/C (%)", "setting": "colon 26 adenocarcinoma; listed as cyclophosphamide", "result": 145, "unit": "%"}, {"measurement": "Inhibition (%)", "setting": "IMC carcinoma", "result": 70.7, "unit": "%"}, {"measurement": "Solid Weight mg ± S.D.", "setting": "IMC carcinoma; day 42", "result": "3620.4 ± 1406.3", "unit": "mg"}]}
{"molecule": "O=c1[nH]cc(F)c(=O)[nH]1", "note": "[5-FU, 5-Fluorouracil, reference compound]", "values": [{"measurement": "Final Tumor Wt. (mg) +/− SEM", "setting": "[6]", "result": "259.6 ± 36.22", "unit": "mg"}]}
{"molecule": "B1", "values": [{"measurement": "Inhibition of HUVEC growth compared with NM-3", "setting": "[7]", "result": "Neither angiostatin nor endostatin inhibited HUVEC growth to the extent of NM-3"}, {"measurement": "Radiation sensitization of tumors", "setting": "[8]", "result": "did not"}]}
{"molecule": "B2", "values": [{"measurement": "Inhibition of HUVEC growth compared with NM-3", "setting": "[7]", "result": "Neither angiostatin nor endostatin inhibited HUVEC growth to the extent of NM-3"}, {"measurement": "Radiation sensitization of tumors", "setting": "[8]", "result": "some radiation sensitization"}]}
